Legend:
Experiment in all cases: relative viability (nuclei count vs DMSO), 5 days (fraction); higher = more cells survive
Bosutinib = compound: COc1cc(Nc2c(C#N)cnc3cc(OCCCN4CCN(C)CC4)c(OC)cc23)c(Cl)cc1Cl [Bosutinib]
Outline: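 Only plates meeting two conditions passed: control CV below 25% and at least one doubling. Lung cancer cell lines, kept overnight at 37 °C in 1536-well plates, were pinned with five library-drug doses (not always all listed) √10 apart on vehicle-anchored plates and grown 5 days without medium change. A one-step fix, permeabilisation and Hoechst stain preceded 4× imaging and MetaXpress nuclear counting. Viability equals treated-well nuclei divided by vehicle-well nuclei, as the median over plates.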

Bosutinib + Bortezomib = compound: COc1cc(Nc2c(C#N)cnc3cc(OCCCN4CCN(C)CC4)c(OC)cc23)c(Cl)cc1Cl [Bosutinib] + CC(C)C[C@H](NC(=O)[C@H](Cc1ccccc1)NC(=O)c1cnccn1)B(O)O [Bortezomib] (partner 0.002 µM)
Outline: (§1)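 Relative viability is defined as nuclei in treated wells over nuclei in vehicle wells. Duplicate plates were run and medians reported. Lung cancer cell lines in 1536-well plates were dosed by pin tool one day after seeding, with one drug or with a fixed anchor-drug dose plus five library-drug doses (not always all listed) in √10 steps, and nuclei were counted after 5 days.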

Bosutinib + Pictilisib = compound: COc1cc(Nc2c(C#N)cnc3cc(OCCCN4CCN(C)CC4)c(OC)cc23)c(Cl)cc1Cl [Bosutinib] + CS(=O)(=O)N1CCN(Cc2cc3nc(-c4cccc5[nH]ncc45)nc(N4CCOCC4)c3s2)CC1 [Pictilisib] (partner 1 µM)
Outline: as §1

Bosutinib + Navitoclax = compound: COc1cc(Nc2c(C#N)cnc3cc(OCCCN4CCN(C)CC4)c(OC)cc23)c(Cl)cc1Cl [Bosutinib] + CC1(C)CCC(c2ccc(Cl)cc2)=C(CN2CCN(c3ccc(C(=O)NS(=O)(=O)c4ccc(N[C@H](CCN5CCOCC5)CSc5ccccc5)c(S(=O)(=O)C(F)(F)F)c4)cc3)CC2)C1 [Navitoclax] (partner 0.5 µM)
Outline: as §1

Bosutinib + Foretinib = compound: COc1cc(Nc2c(C#N)cnc3cc(OCCCN4CCN(C)CC4)c(OC)cc23)c(Cl)cc1Cl [Bosutinib] + COc1cc2c(Oc3ccc(NC(=O)C4(C(=O)Nc5ccc(F)cc5)CC4)cc3F)ccnc2cc1OCCCN1CCOCC1 [Foretinib] (partner 0.25 µM)
Outline: as §1

Bosutinib + Olaparib = compound: COc1cc(Nc2c(C#N)cnc3cc(OCCCN4CCN(C)CC4)c(OC)cc23)c(Cl)cc1Cl [Bosutinib] + O=C(c1cc(Cc2n[nH]c(=O)c3ccccc23)ccc1F)N1CCN(C(=O)C2CC2)CC1 [Olaparib] (partner 8 µM)
Outline: as §1

Bosutinib + Lapatinib = compound: COc1cc(Nc2c(C#N)cnc3cc(OCCCN4CCN(C)CC4)c(OC)cc23)c(Cl)cc1Cl [Bosutinib] + CS(=O)(=O)CCNCc1ccc(-c2ccc3ncnc(Nc4ccc(OCc5cccc(F)c5)c(Cl)c4)c3c2)o1 [Lapatinib] (partner 2 µM)
Outline: as §1

Bosutinib + Crizotinib = compound: COc1cc(Nc2c(C#N)cnc3cc(OCCCN4CCN(C)CC4)c(OC)cc23)c(Cl)cc1Cl [Bosutinib] + C[C@@H](Oc1cc(-c2cnn(C3CCNCC3)c2)cnc1N)c1c(Cl)ccc(F)c1Cl [Crizotinib] (partner 1 µM)
Outline: as §1

Bosutinib + Linsitinib = compound: COc1cc(Nc2c(C#N)cnc3cc(OCCCN4CCN(C)CC4)c(OC)cc23)c(Cl)cc1Cl [Bosutinib] + C[C@]1(O)C[C@@H](c2nc(-c3ccc4ccc(-c5ccccc5)nc4c3)c3c(N)nccn32)C1 [Linsitinib] (partner 1 µM)
Outline: as §1

Bosutinib + Alpelisib = compound: COc1cc(Nc2c(C#N)cnc3cc(OCCCN4CCN(C)CC4)c(OC)cc23)c(Cl)cc1Cl [Bosutinib] + Cc1nc(NC(=O)N2CCC[C@H]2C(N)=O)sc1-c1ccnc(C(C)(C)C(F)(F)F)c1 [Alpelisib] (partner 2 µM)
Outline: as §1

## EBC-1
Bosutinib; 0.01 µM
  relative viability: 1.05
Bosutinib; 0.03162 µM
  relative viability: 0.956
Bosutinib; 0.1 µM
  relative viability: 0.984
Bosutinib; 1 µM
  relative viability: 0.881
Bosutinib + Bortezomib; first compound 0.01 µM
  relative viability: 0.484
Bosutinib + Bortezomib; first compound 0.03162 µM
  relative viability: 0.492
Bosutinib + Bortezomib; first compound 0.1 µM
  relative viability: 0.513
Bosutinib + Bortezomib; first compound 1 µM
  relative viability: 0.523
Bosutinib + Pictilisib; first compound 0.01 µM
  relative viability: 0.347
Bosutinib + Pictilisib; first compound 0.03162 µM
  relative viability: 0.463
Bosutinib + Pictilisib; first compound 0.1 µM
  relative viability: 0.404
Bosutinib + Pictilisib; first compound 1 µM
  relative viability: 0.358
Bosutinib + Navitoclax; first compound 0.01 µM
  relative viability: 0.393
Bosutinib + Navitoclax; first compound 0.03162 µM
  relative viability: 0.461
Bosutinib + Navitoclax; first compound 0.1 µM
  relative viability: 0.519
Bosutinib + Navitoclax; first compound 1 µM
  relative viability: 0.609
Bosutinib + Foretinib; first compound 0.01 µM
  relative viability: 0.115
Bosutinib + Foretinib; first compound 0.03162 µM
  relative viability: 0.11
Bosutinib + Foretinib; first compound 0.1 µM
  relative viability: 0.104
Bosutinib + Foretinib; first compound 1 µM
  relative viability: 0.0985
Bosutinib + Olaparib; first compound 0.01 µM
  relative viability: 0.693
Bosutinib + Olaparib; first compound 0.03162 µM
  relative viability: 0.737
Bosutinib + Olaparib; first compound 0.1 µM
  relative viability: 0.659
Bosutinib + Olaparib; first compound 1 µM
  relative viability: 0.658
Bosutinib + Lapatinib; first compound 0.01 µM
  relative viability: 0.216
Bosutinib + Lapatinib; first compound 0.03162 µM
  relative viability: 0.221
Bosutinib + Lapatinib; first compound 0.1 µM
  relative viability: 0.187
Bosutinib + Lapatinib; first compound 1 µM
  relative viability: 0.204
Bosutinib + Crizotinib; first compound 0.01 µM
  relative viability: 0.199
Bosutinib + Crizotinib; first compound 0.03162 µM
  relative viability: 0.185
Bosutinib + Crizotinib; first compound 0.1 µM
  relative viability: 0.183
Bosutinib + Crizotinib; first compound 1 µM
  relative viability: 0.191
Bosutinib + Linsitinib; first compound 0.01 µM
  relative viability: 0.93
Bosutinib + Linsitinib; first compound 0.03162 µM
  relative viability: 0.906
Bosutinib + Linsitinib; first compound 0.1 µM
  relative viability: 0.937
Bosutinib + Linsitinib; first compound 1 µM
  relative viability: 0.916
Bosutinib + Alpelisib; first compound 0.01 µM
  relative viability: 0.787
Bosutinib + Alpelisib; first compound 0.03162 µM
  relative viability: 0.798
Bosutinib + Alpelisib; first compound 0.1 µM
  relative viability: 0.833
Bosutinib + Alpelisib; first compound 1 µM
  relative viability: 0.736
